ChEMBL document CHEMBL3885861, “Open TG-GATES”

Species on record: Rattus norvegicus
Test: Open TG-GATES - Regimen: Daily Repeat
Type: toxicity, organism-based, Sprague-Dawley
Set-up: regimen Daily Repeat, gender Male, age 6 weeks
Conditions: in vivo, po, 30 mg/kg, route gavage, dose level High; for APTT / Bas / Eos / Fbg / Hb / Ht / Lym / MCH / MCHC / MCV / Mono / Neu / PT / Plat / RBC / Ret / WBC: tissue Blood; for KIDNEY_L / KIDNEY_R / KIDNEY_TOTAL: tissue Kidney; for LIVER: tissue Liver; for A/G / ALP / ALT / AST / BUN / CRE / Ca / Cl / DBIL / GLC / IP / K / LDH / Na / PL / RALB / TBIL / TC / TG / TP / gamma-GTP: tissue Plasma

Cn1cnc([N+](=O)[O-])c1Sc1ncnc2nc[nH]c12 [AZATHIOPRINE]
TERMINAL_BW (72 h, time 3 day): 201.9 g
APTT (72 h, time 3 day): 19.5 s
Bas (72 h, time 3 day): 0%
Eos (72 h, time 3 day): 0.8%
Fbg (72 h, time 3 day): 327.6 mg/dL
Hb (72 h, time 3 day): 12.7 g/dL
Ht (72 h, time 3 day): 37.9%
Lym (72 h, time 3 day): 86%
MCH (72 h, time 3 day): 21.7 pg
MCHC (72 h, time 3 day): 33.5%
MCV (72 h, time 3 day): 64.7 fL
Mono (72 h, time 3 day): 2.2%
Neu (72 h, time 3 day): 9.4%
PT (72 h, time 3 day): 15.3 s
Plat (72 h, time 3 day): 140.5 x10_4/uL
RBC (72 h, time 3 day): 585.2 x10_4/ul
Ret (72 h, time 3 day): 2.3%
WBC (72 h, time 3 day): 55.5 x10_2/uL
KIDNEY_L (72 h, time 3 day): 0.9 g
KIDNEY_R (72 h, time 3 day): 0.9 g
KIDNEY_TOTAL (72 h, time 3 day): 1.8 g
LIVER (72 h, time 3 day): 9.7 g
A/G (72 h, time 3 day): 1.2
ALP (72 h, time 3 day): 1508.2 IU/L
ALT (72 h, time 3 day): 33 IU/L
AST (72 h, time 3 day): 68.2 IU/L
BUN (72 h, time 3 day): 17.2 mg/dL
CRE (72 h, time 3 day): 0.1 mg/dL
Ca (72 h, time 3 day): 11.3 mg/dL
Cl (72 h, time 3 day): 106 meq/L
DBIL (72 h, time 3 day): 0 mg/dL
GLC (72 h, time 3 day): 185 mg/dL
IP (72 h, time 3 day): 6.8 mg/dL
K (72 h, time 3 day): 4.4 meq/L
LDH (72 h, time 3 day): 199.8 IU/L
Na (72 h, time 3 day): 143 meq/L
PL (72 h, time 3 day): 160.4 mg/dL
RALB (72 h, time 3 day): 3.3 g/dL
TBIL (72 h, time 3 day): 0.008 mg/dL
TC (72 h, time 3 day): 91.8 mg/dL
TG (72 h, time 3 day): 77 mg/dL
TP (72 h, time 3 day): 6 g/dL
gamma-GTP (72 h, time 3 day): 1.4 IU/L
TERMINAL_BW ([…], time 7 day): 220 g
TERMINAL_BW ([…], time 14 day): 226 g
TERMINAL_BW ([…], time 28 day): 300.4 g
APTT ([…], time 7 day): 21.5 s
Bas ([…], time 7 day): 0%
Eos ([…], time 7 day): 1%
Fbg ([…], time 7 day): 314.4 mg/dL
Hb ([…], time 7 day): 12.4 g/dL
Ht ([…], time 7 day): 36%
Lym ([…], time 7 day): 84.6%
MCH ([…], time 7 day): 22.1 pg
MCHC ([…], time 7 day): 34.5%
MCV ([…], time 7 day): 64.2 fL
Mono ([…], time 7 day): 1.8%
Neu ([…], time 7 day): 11.6%
PT ([…], time 7 day): 15.1 s
Plat ([…], time 7 day): 192.2 x10_4/uL
RBC ([…], time 7 day): 561.4 x10_4/ul
Ret ([…], time 7 day): 4.1%
WBC ([…], time 7 day): 73.3 x10_2/uL
APTT ([…], time 14 day): 28.3 s
Bas ([…], time 14 day): 0%
Eos ([…], time 14 day): 0.2%
Fbg ([…], time 14 day): 458.2 mg/dL
Hb ([…], time 14 day): 12.5 g/dL
Ht ([…], time 14 day): 35%
Lym ([…], time 14 day): 85.8%
MCH ([…], time 14 day): 21.8 pg
MCHC ([…], time 14 day): 35.6%
MCV ([…], time 14 day): 61.2 fL
Mono ([…], time 14 day): 2%
Neu ([…], time 14 day): 10.6%
PT ([…], time 14 day): 18.9 s
Plat ([…], time 14 day): 86.4 x10_4/uL
RBC ([…], time 14 day): 571.6 x10_4/ul
Ret ([…], time 14 day): 3%
WBC ([…], time 14 day): 49.6 x10_2/uL
APTT ([…], time 28 day): 24.3 s
Bas ([…], time 28 day): 0%
Eos ([…], time 28 day): 1%
Fbg ([…], time 28 day): 339.5 mg/dL
Hb ([…], time 28 day): 12.4 g/dL
Ht ([…], time 28 day): 35.6%
Lym ([…], time 28 day): 87%
MCH ([…], time 28 day): 21.5 pg
MCHC ([…], time 28 day): 34.9%
MCV ([…], time 28 day): 61.6 fL
Mono ([…], time 28 day): 1%
Neu ([…], time 28 day): 10.5%
PT ([…], time 28 day): 16.4 s
Plat ([…], time 28 day): 135.4 x10_4/uL
RBC ([…], time 28 day): 577.5 x10_4/ul
Ret ([…], time 28 day): 5.3%
WBC ([…], time 28 day): 35.2 x10_2/uL
KIDNEY_L ([…], time 7 day): 1 g
KIDNEY_R ([…], time 7 day): 1 g
KIDNEY_TOTAL ([…], time 7 day): 2 g
KIDNEY_L ([…], time 14 day): 1.1 g
KIDNEY_R ([…], time 14 day): 1.1 g
KIDNEY_TOTAL ([…], time 14 day): 2.1 g
KIDNEY_L ([…], time 28 day): 1.1 g
KIDNEY_R ([…], time 28 day): 1.2 g
KIDNEY_TOTAL ([…], time 28 day): 2.3 g
LIVER ([…], time 7 day): 10.9 g
LIVER ([…], time 14 day): 11.5 g
LIVER ([…], time 28 day): 12.9 g
A/G ([…], time 7 day): 1.1
ALP ([…], time 7 day): 1412.8 IU/L
ALT ([…], time 7 day): 29.6 IU/L
AST ([…], time 7 day): 75.2 IU/L
BUN ([…], time 7 day): 17.8 mg/dL
CRE ([…], time 7 day): 0.1 mg/dL
Ca ([…], time 7 day): 11.3 mg/dL
Cl ([…], time 7 day): 105.2 meq/L
DBIL ([…], time 7 day): 0 mg/dL
GLC ([…], time 7 day): 191.2 mg/dL
IP ([…], time 7 day): 6.6 mg/dL
K ([…], time 7 day): 4.1 meq/L
LDH ([…], time 7 day): 255.6 IU/L
Na ([…], time 7 day): 142.6 meq/L
PL ([…], time 7 day): 179.8 mg/dL
RALB ([…], time 7 day): 3.3 g/dL
TBIL ([…], time 7 day): 0.01 mg/dL
TC ([…], time 7 day): 98.2 mg/dL
TG ([…], time 7 day): 56.4 mg/dL
TP ([…], time 7 day): 6.2 g/dL
gamma-GTP ([…], time 7 day): 1 IU/L
A/G ([…], time 14 day): 0.9
ALP ([…], time 14 day): 976.6 IU/L
ALT ([…], time 14 day): 135 IU/L
AST ([…], time 14 day): 523.6 IU/L
BUN ([…], time 14 day): 31.6 mg/dL
CRE ([…], time 14 day): 0.2 mg/dL
Ca ([…], time 14 day): 11.2 mg/dL
Cl ([…], time 14 day): 106.8 meq/L
DBIL ([…], time 14 day): 0.036 mg/dL
GLC ([…], time 14 day): 168.8 mg/dL
IP ([…], time 14 day): 8.4 mg/dL
K ([…], time 14 day): 4.8 meq/L
LDH ([…], time 14 day): 1529.2 IU/L
Na ([…], time 14 day): 142.6 meq/L
PL ([…], time 14 day): 149.6 mg/dL
RALB ([…], time 14 day): 3 g/dL
TBIL ([…], time 14 day): 0.074 mg/dL
TC ([…], time 14 day): 94.8 mg/dL
TG ([…], time 14 day): 35.8 mg/dL
TP ([…], time 14 day): 6.5 g/dL
gamma-GTP ([…], time 14 day): 1.4 IU/L
A/G ([…], time 28 day): 1.1
ALP ([…], time 28 day): 982 IU/L
ALT ([…], time 28 day): 32 IU/L
AST ([…], time 28 day): 71.5 IU/L
BUN ([…], time 28 day): 19 mg/dL
CRE ([…], time 28 day): 0.2 mg/dL
Ca ([…], time 28 day): 10.8 mg/dL
Cl ([…], time 28 day): 106.5 meq/L
DBIL ([…], time 28 day): 0.01 mg/dL
GLC ([…], time 28 day): 192.5 mg/dL
IP ([…], time 28 day): 5.7 mg/dL
K ([…], time 28 day): 3.9 meq/L
LDH ([…], time 28 day): 214 IU/L
Na ([…], time 28 day): 141.5 meq/L
PL ([…], time 28 day): 138.5 mg/dL
RALB ([…], time 28 day): 3.4 g/dL
TBIL ([…], time 28 day): 0.05 mg/dL
TC ([…], time 28 day): 73 mg/dL
TG ([…], time 28 day): 42.5 mg/dL
TP ([…], time 28 day): 6.5 g/dL
gamma-GTP ([…], time 28 day): 2 IU/L
